From patent US7998965B2, “Glutamate aggrecanase inhibitors” (Wyeth LLC, priority 2005, dated 2011) come the findings set out here.

Assay [1] concerns the target T1, purified recombinant human Aggrecanase-1 (rAgg1) (Homo sapiens, UniProt O75173).
T1 sequence (O75173 213-837): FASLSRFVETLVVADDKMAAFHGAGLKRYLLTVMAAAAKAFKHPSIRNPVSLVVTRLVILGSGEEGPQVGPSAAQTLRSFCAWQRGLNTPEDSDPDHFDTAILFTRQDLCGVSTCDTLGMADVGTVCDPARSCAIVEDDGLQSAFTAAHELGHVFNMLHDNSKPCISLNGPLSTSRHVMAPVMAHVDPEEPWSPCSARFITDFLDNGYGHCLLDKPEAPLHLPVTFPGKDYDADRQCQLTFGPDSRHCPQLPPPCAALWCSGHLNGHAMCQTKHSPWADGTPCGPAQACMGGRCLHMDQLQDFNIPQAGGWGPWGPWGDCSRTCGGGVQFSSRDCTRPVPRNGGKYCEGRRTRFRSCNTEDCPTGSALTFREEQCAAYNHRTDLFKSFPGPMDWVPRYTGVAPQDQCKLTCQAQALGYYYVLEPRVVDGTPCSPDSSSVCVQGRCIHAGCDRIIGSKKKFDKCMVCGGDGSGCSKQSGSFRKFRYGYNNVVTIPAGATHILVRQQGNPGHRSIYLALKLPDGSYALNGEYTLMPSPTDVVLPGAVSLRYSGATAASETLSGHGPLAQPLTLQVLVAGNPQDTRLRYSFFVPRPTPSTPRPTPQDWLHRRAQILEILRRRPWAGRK
Briefly: In vitro fluorescence screen for Aggrecanase-1 inhibitors. It counts as biochemical. Details: Agg1 % at concentration: scale not given here. Conditions: for pIC50: read-out: Agg1 IC50.

Assay [2] deals with T2, purified recombinant human Aggrecanase-2 (Ag2t-Phe628-Strep) (Homo sapiens, UniProt Q9UNA0).
T2 construct: the form used is denoted as Ag2t-Phe628-Strep (MW=41,737)
T2 sequence (Q9UNA0 262-628): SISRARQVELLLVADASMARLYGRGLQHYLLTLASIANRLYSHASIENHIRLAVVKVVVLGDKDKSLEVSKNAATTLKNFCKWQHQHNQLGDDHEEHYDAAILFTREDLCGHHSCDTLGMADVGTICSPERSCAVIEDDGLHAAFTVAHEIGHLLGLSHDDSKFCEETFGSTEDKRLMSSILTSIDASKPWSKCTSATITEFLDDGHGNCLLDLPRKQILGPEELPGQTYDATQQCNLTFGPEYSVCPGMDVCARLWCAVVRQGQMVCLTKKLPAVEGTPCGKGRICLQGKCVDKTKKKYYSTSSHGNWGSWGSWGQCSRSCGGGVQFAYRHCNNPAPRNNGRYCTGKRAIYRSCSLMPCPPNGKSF
Briefly: In vitro fluorescence screen for Aggrecanase-2 inhibitors. It counts as biochemical. Particulars: for pIC50: read-out: Agg 2 IC50.

Broadly, the pIC50 is −log10 of the IC50, conventionally taken in molar units. By pKi is commonly meant the Ki on a negative log10 scale, so that one unit is a factor of ten.

pIC50, pKi: −log10 of the molar value. Like-named read-outs stand apart in the source and are kept apart here.

With `COc1cc(CNC(=O)[C@H](CCC(=O)O)NC(=O)c2cccc3c2-c2ccccc2C3)cc(OC)c1OC` [Example 8XXXX, N^2-(9H-fluoren-4-ylcarbonyl)-N^1-(3,4,5-trimethoxybenzyl)-L-α-glutamine], the pIC50 is less than 4.30 in assay [1] (Table 2) and less than 3.70 in assay [2] (Table 2).

Take `CC(C)(Cc1ccccc1)NC(=O)[C@H](CCC(=O)O)NC(=O)c1ccc(-c2ccc(C=O)s2)cc1` [N-(1,1-dimethyl-2-phenylethyl)-N^2-[4-(5-formyl-2-thienyl)benzoyl]-L-α-glutamine]: the pIC50 was greater than 7.52 in assay [1] (Table 3) and 6.30 in assay [2] (Table 3).

In the case of `CC(C)(Cc1ccc(Cl)s1)NC(=O)[C@H](CCC(=O)O)NC(=O)c1ccc(-c2ccc(F)c(Cl)c2)s1` [Example 8KKKKKKK, N^2-{[5-(3-chloro-4-fluorophenyl)-2-thienyl]carbonyl}-N-[2-(5-chloro-2-thienyl)-1,1-dimethylethyl]-L-α-glutamine], the pIC50 in assay [1] (Table 3) and in assay [2] (Table 3) was greater than 7.52 throughout.

Turning to `COc1ccc(-c2ccc(C(=O)NC(CCC(=O)O)C(=O)NCc3cc(OC)c(OC)c(OC)c3)cc2)cc1C` (stereo not shown) [Example 17M, 4-[(4′-Methoxy-3′-methyl-biphenyl-4-carbonyl)-amino]-4-(3,4,5-trimethoxy-benzylcarbamoyl)-butyric acid], the pIC50 in assay [1] (Table 2) was roughly 6.51; in assay [2] (Table 2) it was less than 4.96.

As to `COc1cc(CNC(=O)[C@H](CCC(=O)O)NC(=O)c2ccc(Br)cc2)cc(OC)c1OC` [Example 18D, N^2-(4-bromobenzoyl)-N-(3,4,5-trimethoxybenzyl)-L-α-glutamine], the pIC50 in assay [1] (Table 2) was 5.36; in assay [2] (Table 2) it was less than 4.66.

Regarding `CC(C)(Cc1ccc(Cl)cc1)NC(=O)[C@H](CCC(=O)O)NC(=O)c1ccc(-c2ccc(F)c(F)c2)cc1` [Example 8ZZZZZZ, N-[2-(4-chlorophenyl)-1,1-dimethylethyl]-N^2-[(3′,4′-difluorobiphenyl-4-yl)carbonyl]-L-α-glutamine], the pIC50 in assay [1] (Table 3) was greater than 7.52; in assay [2] (Table 3), 6.92.

Turning to `O=C(O)CC[C@H](NC(=O)c1ccc(-c2ccc(OCc3cccc(-c4ccccc4)c3)cc2)cc1)C(=O)NCc1ccccc1` [Example 15U, N-benzyl-N^2-{[4′-(biphenyl-3-ylmethoxy)biphenyl-4-yl]carbonyl}-L-α-glutamine], the “Agg1 % at concentration” value in assay [1] (Table 3, at 100 (nM)) is reported as 53%; in assay [1] (Table 3, at 1000 (nM)), 53%. Moreover, the inhibition at 11 µM in assay [2] (Table 3, at 11000 (nM), read-out: Agg 2 % at concentration) was 30%. Moreover, in assay [2] (Table 3), the pIC50 was 6.22.

With `COc1cccc(C#Cc2ccc(C(=O)N[C@@H](CCC(=O)O)C(=O)NCc3ccccc3)cc2)c1` [Example 12L, N-benzyl-N^2-{4-[(3-methoxyphenyl)ethynyl]benzoyl}-L-α-glutamine], the pIC50 in assay [1] (Table 2) was roughly 4.66; in assay [2] (Table 2), less than 4.66.

In the case of `O=C(O)CC[C@H](NC(=O)c1ccc2c(c1)Cc1ccccc1-2)C(=O)NC12CC3CC(CC(C3)C1)C2` [Example 8AAAAA, N^1-1-adamantyl-N^2-(9H-fluoren-2-ylcarbonyl)-L-α-glutamine], the pIC50 is 6.43 in assay [1] (Table 2) and 6.39 in assay [2] (Table 2).

Regarding `CC(C)(Cc1ccccc1)NC(=O)[C@H](CCC(=O)O)NC(=O)c1ccc(-c2ccc(F)c(Cl)c2)s1` [N^2-{[5-(3-chloro-4-fluorophenyl)-2-thienyl]carbonyl}-N-(1,1-dimethyl-2-phenylethyl)-L-α-glutamine], the pIC50 in assay [1] (Table 3) was greater than 7.52; in assay [2] (Table 3) it was 6.70 to 7.22. The pKi in assay [1] (Table 3, read-out: Ki Agg1) is greater than 8.52; in assay [2] (Table 3, read-out: Ki Agg2), 6.81.

Consider `O=C(O)CC[C@H](NC(=O)c1ccc(-c2ccccc2)cc1)C(=O)NCCC(c1ccccc1)c1ccccc1` [Example 8OOO, N^2-(biphenyl-4-ylcarbonyl)-N^1-(3,3-diphenylpropyl)-L-α-glutamine], for which the pIC50 was 6.55 in assay [1] (Table 1) and 6.00 in assay [2] (Table 1).

Regarding `CC(C)(Cc1ccc(Cl)cc1)NC(=O)[C@H](CCC(=O)O)NC(=O)c1cccc(-c2cccs2)c1` [N-[2-(4-chlorophenyl)-1,1-dimethylethyl]-N^2-[3-(2-thienyl)benzoyl]-L-α-glutamine], the “Agg1 % at concentration” value in assay [1] (Table 3, at 25000 (nM)) came out at 16%. The “Agg 2 % at concentration” value in assay [2] (Table 3, at 25000 (nM)) is on record as 10%.

As to `COc1cc(COc2ccc(-c3ccc(C(=O)N[C@@H](CCC(=O)O)C(=O)NCCCCCCO)cc3)cc2)cc(OC)c1` [Example 19G, N^2-({4′-[(3,5-dimethoxybenzyl)oxy]biphenyl-4-yl}carbonyl)-N-(6-hydroxyhexyl)-L-α-glutamine], the pIC50 in assay [1] (Table 2) is 6.57; in assay [2] (Table 2) it was 6.84.

Consider `CC(C)(Cc1ccc(F)cc1)NC(=O)[C@H](CCC(=O)O)NC(=O)c1ccc(-c2ccc(O)cc2)cc1` [Example 17OO, N-[2-(4-fluorophenyl)-1,1-dimethylethyl]-N^2-[(4′-hydroxybiphenyl-4-yl)carbonyl]-L-α-glutamine], for which the values for the pIC50 in assay [1] (Table 2) and in assay [2] (Table 2) were greater than 7.52 and 5.78, respectively.

For the compound `O=C(O)CC[C@H](NC(=O)C1c2ccccc2-c2ccccc21)C(=O)NCc1ccccc1` [Example 8KKKKK, N^1-benzyl-N^2-(9H-fluoren-9-ylcarbonyl)-L-α-glutamine], the pIC50 was less than 4.30 in assay [1] (Table 2) and less than 4.66 in assay [2] (Table 2).

For `CC(C)(Cc1ccc(F)cc1)NC(=O)[C@H](CCC(=O)O)NC(=O)c1ccc(-c2cccnc2)s1` [Example 8ZZZZZZZZ, N-[2-(4-fluorophenyl)-1,1-dimethylethyl]-N^2-[(5-pyridin-3-yl-2-thienyl)carbonyl]-L-α-glutamine], the pIC50 was 7.15 to 7.70 in assay [1] (Table 3) and 5.00 in assay [2] (Table 3).

As for `O=C(O)CC[C@H](NC(=O)C1c2ccccc2-c2ccccc21)C(=O)NC12CC3CC(CC(C3)C1)C2` [Example 8BBBBB, N^1-1-adamantyl-N^2-(9H-fluoren-9-ylcarbonyl)-L-α-glutamine], the pIC50 in assay [1] (Table 2) was less than 4.77; in assay [2] (Table 2), 4.68.

For the compound `COc1ccc(-c2ccc(C(=O)N[C@@H](CCC(=O)O)C(=O)NC(C)(C)Cc3ccccc3)cc2)cc1OC` [Example 17J, N^2-[(3′,4′-dimethoxybiphenyl-4-yl)carbonyl]-N-(1,1-dimethyl-2-phenylethyl)-L-α-glutamine], the negative-log IC50 (pIC50) in assay [1] (Table 2) is roughly 5.25; in assay [2] (Table 2), roughly 4.52.

For the compound `COc1cccc(-c2ccccc2COc2ccc(-c3ccc(C(=O)N[C@@H](CCC(=O)O)C(=O)NCc4ccccc4)cc3)cc2)c1` [Example 15X, N-benzyl-N^2-({4′-[(3′-methoxybiphenyl-2-yl)methoxy]biphenyl-4-yl}carbonyl)-L-α-glutamine], in assay [1] (Table 3, at 1900 (nM)), the “Agg1 % at concentration” value is given as 46%. For the same compound, the “Agg 2 % at concentration” value in assay [2] (Table 3, at 11000 (nM)) came to 52%.

Consider `COc1cc(OC)cc(OCc2ccc(-c3ccc(C(=O)N[C@@H](CCC(=O)O)C(=O)NCc4cccc(C)c4)cc3)cc2)c1` [Example 15Q, N^2-({4′-[(3,5-dimethoxyphenoxy)methyl]biphenyl-4-yl}carbonyl)-N-(3-methylbenzyl)-L-α-glutamine], for which the pIC50 in assay [1] (Table 3) is 6.80; in assay [2] (Table 3), 5.71.

For `CCOc1cccc(-c2ccc(C(=O)N[C@@H](CCC(=O)O)C(=O)NC(C)(C)Cc3ccccc3)cc2)c1` [Example 17MM, N-(1,1-dimethyl-2-phenylethyl)-N^2-[(3′-ethoxybiphenyl-4-yl)carbonyl]-L-α-glutamine], the pIC50 was 7.34 in assay [1] (Table 2) and 5.57 in assay [2] (Table 2).

As for `CC(C)(Cc1ccccc1)NC(=O)[C@H](CCC(=O)O)NC(=O)c1ccc(-c2cccnc2)s1` [N-(1,1-dimethyl-2-phenylethyl)-N^2-[(5-pyridin-3-yl-2-thienyl)carbonyl]-L-α-glutamine], the “Agg1 % at concentration” value in assay [1] (Table 3, at 70 (nM)) stood at 57% 70. Besides, in assay [2] (Table 3), the negative-log IC50 (pIC50) is 5.14.

In the case of `COc1cc(CNC(=O)[C@H](CCC(=O)O)NC(=O)c2ccc(-c3ccc(O)cc3)cc2)cc(OC)c1OC` [Example 17V, N^2-[(4′-hydroxybiphenyl-4-yl)carbonyl]-N-(3,4,5-trimethoxybenzyl)-L-α-glutamine], the pIC50 was 7.05 in assay [1] (Table 2) and 5.74 in assay [2] (Table 2).

With `O=C(O)CC[C@H](NC(=O)c1ccc(-c2ccccc2)cc1)C(=O)NCCc1ccccc1` [Example 8FFF, N^2-(1,1′-biphenyl-4-ylcarbonyl)-N^1-(2-phenylethyl)-L-α-glutamine], the pIC50 was 6.70 in assay [1] (Table 1) and 6.00 in assay [2] (Table 1).
